Publication PMC10354055, “An optimized Nurr1 agonist provides disease-modifying effects in Parkinson’s disease models” (Nature Communications, 2023)
Where “and” joins values, the source holds several entries; their conditions need not be identical. Equal values may be shown once.

Tests used:
Nurr1-LBD = target: T1, Nurr1-LBD (Mus musculus, UniProt Q06219); assay: Luciferase reporter assay, Nurr1-LBD, N27-A cells; assay type: cell-based; settings: for EC50: Supplementary Fig. 1d,e
T1 construct: transfected with pCMV-fNurr1, pGAL-Nurr1(LBD), pGAL-Nor1(LBD) or pGAL-Nur77(LBD) and reporter construct; expressed in transfected cells; host or cells: SK-N-BE(2)C (human neuroblastoma), N27-A (rat dopaminergic), MN9D (murine dopaminergic)
T1 sequence (Q06219 360-595 limits assumed): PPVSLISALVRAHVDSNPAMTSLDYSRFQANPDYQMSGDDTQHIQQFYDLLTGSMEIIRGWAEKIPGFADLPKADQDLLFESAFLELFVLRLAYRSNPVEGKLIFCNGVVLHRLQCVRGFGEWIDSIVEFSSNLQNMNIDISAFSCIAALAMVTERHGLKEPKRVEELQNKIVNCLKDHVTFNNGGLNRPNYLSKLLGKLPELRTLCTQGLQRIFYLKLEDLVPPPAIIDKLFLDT
From the text: Nurr1 transactivity was normalized to β-galactosidase activity.

N27-A cells = assay: Cell viability, MTT reduction, MPP+-treated N27-A cells; assay type: cell-based, rat; settings: Fig. 2a, CQ 100 µM, 4A7C-301 1 µM
MN9D cells = assay: Cytotoxicity, LDH release, MPP+-treated MN9D cells; assay type: cell-based, mouse
Experimental: Cells were transfected with Nurr1 subcloned into pcDNA3.1 vector[23] for Nurr1 overexpression (OE). […] Nurr1 OE or KD by transfection was analyzed by Western blot.
Cellular oxidative stress was detected using the DCFDA Cellular ROS Assay Kit (Abcam) according to the manufacturer’s protocol. Briefly, cells seeded in black clear bottom 96 well plate were stained with DCFDA solution (20 µM) for 45 min at 37 °C. […] Cytotoxicity was determined by measuring lactate dehydrogenase (LDH) release into the culture medium using a LDH cytotoxicity detection kit (Roche)[33]. Absorbance was measured at 490 nm with a microplate reader and cytotoxicity was calculated as a percentage (%) relative to 1% TritonX-100 control. Cell viability was determined using 3-(4,5-dimethylthiazol-2-yl)-2,5-diphenyltetrazolium bromide (MTT) as previously described. Briefly, cells were incubated with 5 mg/ml of MTT (Sigma-Aldrich) solution for 3.5 h at 37 °C. MTT formazan crystals were dissolved in 10 times the volume of MTT solvent (4 mM HCl and 0.1% Nonidet P-40 in isopropanol) and the absorbance from the generated blue formazan was measured at 570 nm after 15 min incubation at room temperature. Cell viability was calculated as a percentage (%) of MTT reduction relative to vehicle control.

Nurr1 mRNA = Nurr1 mRNA level, qRT-PCR, MN9D cells; assay type: cell-based, mouse; settings: for Nurr1 mRNA levels (in words): MPP+ or αSyn overexpression; for Relative Nurr1 mRNA expression (fold of Cont.): Fig. S4f; for Relative Nurr1 mRNA expression (fold of +GFP Basal): Fig. S4h
Experimental: Total RNA was extracted using the GeneJET RNA Purification Kit (Thermo Fisher Scientific) and 100 ng of RNA was subjected to cDNA synthesis using Invitrogen Superscript cDNA Synthesis Kit (Invitrogen) according to the manufacturer’s protocol. qRT-PCR was performed using a CFX Connect Real-Time System (Bio-Rad) in a 20 μl volume mixture containing 2X SsoAdvanced Universal SYBR Green Supermix (Bio-Rad), 100 ng/μl of forward and reverse primers, and 1 μl of cDNA sample. Gene expression levels were quantified by the 2^∆∆CT method (Ct of target gene—Ct of glyceraldehyde-3-phosphate dehydrogenase (GAPDH). The following primers were used for qRT-PCR: TH forward: 5′-[…]-3′, reverse: 5′-[…]-3′; DAT forward: 5′-[…]-3′, reverse: 5′-[…]-3′; AADC forward: 5′-[…]-3′, reverse: 5′-[…]-3′; VMAT2 forward: 5′-[…]-3′, reverse: 5′-[…]-3′; c-Ret forward: 5′-[…]-3′, reverse: 5′-[…]-3′; TNFα forward: 5′-[…]-3′; reverse: 5′-[…]-3′; GAPDH, forward 5′-[…]-3′, reverse 5′-[…]-3′.
Lenti-GFP, -αSyn^WT, and -αSyn^A53T viruses were generated separately by co-transfecting each shuttle plasmid with lentivirus packaging plasmids into HEK293T cells using lipofectamine 2000 (Invitrogen). Briefly, 2 μg each FUW inducible shuttle plasmid, 2 μg FUW-rtTA, 2 μg psPax2 and 1.5 μg MD2.G were mixed and transfected into HEK293T cells. After 48 h, viral supernatants were collected and centrifuged at 1000g for 10 min, and subsequently filtered through a 0.45 μm filter. Lentiviruses were transduced into MN9D cells with 8 μg/ml of polybrene and the viral supernatant was removed and replaced with fresh medium a day after transduction.

MPTP-induced male mice [1] = assay: Cylinder test, MPTP-induced PD model mice; assay type: in vivo, mouse; settings: for Number of rearing: Figure 4d, MPTP-induced mice, individual animal values
Experimental: (§1) MPTP (Sigma-Aldrich) was intraperitoneally (i.p.) injected (30 mg/kg) for 5 days (Day 1-5). […] To test dyskinetic involuntary behavior, an L-DOPA injected group was included, which received 50 mg/kg of L-DOPA and 15 mg/kg of benserazide (Sigma-Aldrich) (i.p.) for 16 days (Day 1–16). All compounds were administered 6 h post-MPTP injection to avoid any effect of compounds on the MPTP metabolism in the brain. Motor and non-motor related behavior tests were performed on the following days as described in Fig. 4a in an assessor- and observer-blinded fashion. Pre-training and baseline setup for motor-related behaviors were performed 3 days prior to the injections. Mice were sacrificed and subjected to immunohistochemistry. Mice were housed at the Animal Care Facilities of McLean Hospital under a 12-h light/12-h dark cycle, ambient temperature and humidity. Animals were handled in accordance with McLean Hospital’s Institutional Animal Care and Use Committee (Protocol #: 2015N000002) and followed National Institutes of Health guidelines.
Mice were placed in a transparent plastic cylinder (15.5 cm high, 12.7 cm diameter) with a mirror behind it. Spontaneous activity was recorded and measured as counting the number of rearing events for 3 min session. A rear was considered only when the mouse touched the wall of the cylinder with its forelimb paws while standing on its hindlimbs (vertical movement) to count meaningful physiological movements.

MPTP-induced male mice [2] = assay: Olfactory discrimination test, MPTP-induced PD model mice; assay type: in vivo, mouse; settings: for olfaction, olfactory discrimination test (in words): CQ 40, 4A7C-301 5, L-DOPA 50 mg/kg/day, i.p.
Experimental: as §1
The olfactory discrimination test was designed based on Prediger et al.. Briefly, mice were placed in a chamber (40 (w) × 20 (d) × 20 (h) cm) segmented with two identical compartments containing fresh sawdust (non-familiar odor) on one side and unchanged sawdust (familiar odor; maintained for 3 days before the test) on the other side. Mice could choose between one or another area by freely passing through an open door, for 5 min. Mice movements were monitored with EthoVision XT version 7.0 (Noldus) and time (s) and distance (cm) traveled in each compartment were recorded and analyzed.

[3] = Fig. S3f, MPP+, Control, CQ 100 µM, 4A7C-301 1 µM
[4] = Fig. S3f, MPP+, Nurr1 KD, CQ 100 µM, 4A7C-301 1 µM
[5] = Fig. S3f, MPP+, Nurr1 OE, CQ 100 µM, 4A7C-301 1 µM
[6] = Figure 4e, MPTP-induced mice, individual animal values

SMILES: CCN(CC)CCCC(C)Nc1ccnc2cc(Cl)ccc12 (centres unmarked) [CQ, chloroquine]
- EC50 (Nurr1-LBD): ~10 µM
- MTT reduction (%) (N27-A cells; Control): 57.8947% and 66.3158% and 61.0526% and 65.2632%
- MTT reduction (%) (N27-A cells; Nurr1 KD): 34.0206% and 28.866% and 35.0515% and 27.8351%
- MTT reduction (%) (N27-A cells; Nurr1 OE): 79.3814% and 82.4742% and 84.5361% and 87.6289%
- LDH release (%) (MN9D cells; [3]): 40.5948% and 42.0584% and 38.5456% and 42.2156%
- LDH release (%) (MN9D cells; [4]): 55.6098% and 56.4684%
- LDH release (%) (MN9D cells; [5]): 26.1572% and 27.9568% and 27.0629%
- LDH release (%) (MN9D cells; Fig. S3d, with MPP+, 1 µM): 41.5124% and 43.1347% and 42.8643%
- LDH release (%) (MN9D cells; Fig. S3d, with MPP+, 5 µM): 41.2806% and 41.8214% and 41.3965%
- LDH release (%) (MN9D cells; Fig. S3d, with MPP+, 10 µM): 39.6197% and 38.7699% and 40.5081%
- LDH release (%) (MN9D cells; Fig. S3d, with MPP+, 50 µM): 38.5767% and 38.7312% and 38.1518%
- LDH release (%) (MN9D cells; Fig. S3d, with MPP+, 100 µM): 37.1862% and 37.0703% and 38.1905%
- Nurr1 mRNA levels (in words) (Nurr1 mRNA): did not alter
- Number of rearing (MPTP-induced male mice [1]): 9 and 22 and 80 and 21 and 16 and 37 and 89 and 30 and 61
- olfaction, olfactory discrimination test (in words) (MPTP-induced male mice [2]): significantly restored
- Velocity (MPTP-induced male mice [2]; [6]): 3.95 cm/s and 4.45 cm/s and 4.51 cm/s and 5.91 cm/s and 5.61 cm/s and 5.73 cm/s and 4.26 cm/s and 5.02 cm/s and 3.4 cm/s and 5.27 cm/s and 6.07 cm/s

SMILES: CCN1CCN(c2cc(N3CCN(CC)CC3)nc(NCCNc3ccnc4cc(Cl)ccc34)n2)CC1 [4A7C-301, N^1-(4,6-bis(4-ethylpiperazin-1-yl)pyrimidin-2-yl)-N^2-(7-chloroquinolin-4-yl)ethane-1,2-diamine]
- potency relative to CQ (Nurr1-LBD): approximately 50 times
- EC50 (Nurr1-LBD): ~0.2 µM
- MTT reduction (%) (N27-A cells; Control): 65.2632% and 62.1053% and 64.2105% and 61.0526%
- MTT reduction (%) (N27-A cells; Nurr1 KD): 30.9278% and 29.8969% and 34.0206%
- MTT reduction (%) (N27-A cells; Nurr1 OE): 86.5979% and 95.8763% and 87.6289% and 83.5052%
- LDH release (%) (MN9D cells; Fig. S1g, with MPP+, conc. 0.1 µM, replicates): 41.8716% and 42.3575% and 42.6815%
- LDH release (%) (MN9D cells; Fig. S1g, with MPP+, conc. 0.5 µM, replicates): 39.0371% and 39.604% and 39.28%
- LDH release (%) (MN9D cells; Fig. S1g, with MPP+, conc. 1 µM, replicates): 37.6198% and 37.0529% and 37.2958%
- LDH release (%) (MN9D cells; Fig. S1g, with MPP+, conc. 5 µM, replicates): 37.2149% and 37.0124% and 37.6198%
- LDH release (%) (MN9D cells; Fig. S1g, with MPP+, conc. 10 µM, replicates): 36.486% and 37.8628% and 37.3363%
- LDH release (%) (MN9D cells; [3]): 38.8915% and 36.4082% and 36.6047% and 41.8443%
- LDH release (%) (MN9D cells; [4]): 55.7866% and 55.7395% and 56.0212% and 56.0866%
- LDH release (%) (MN9D cells; [5]): 24.7388% and 23.725% and 24.6956% and 22.8802%
- LDH release (%) (MN9D cells; Fig. S3d, with MPP+, 0.1 µM): 43.0575% and 41.9759% and 41.8986%
- LDH release (%) (MN9D cells; Fig. S3d, with MPP+, 0.5 µM): 40.7398% and 41.2806% and 41.0489%
- LDH release (%) (MN9D cells; Fig. S3d, with MPP+, 1 µM): 39.0016% and 38.0746% and 37.5724%
- LDH release (%) (MN9D cells; Fig. S3d, with MPP+, 5 µM): 38.2677% and 37.7656% and 37.302%
- LDH release (%) (MN9D cells; Fig. S3d, with MPP+, 10 µM): 35.5638% and 36.4136% and 37.4179%
- concentration of maximal efficiency, times lower than CQ (MN9D cells; MN9D cells, MPP+-induced cytotoxicity): ~ 20 times
- Relative Nurr1 mRNA expression (fold of Cont.) (Nurr1 mRNA; w/ MPP+): 0.4287 fold of Cont. and 0.414 fold of Cont. and 0.4438 fold of Cont.
- Relative Nurr1 mRNA expression (fold of Cont.) (Nurr1 mRNA; w/o MPP+): 1.004 fold of Cont. and 0.9452 fold of Cont. and 0.974 fold of Cont.
- Relative Nurr1 mRNA expression (fold of +GFP Basal) (Nurr1 mRNA; + GFP): 1.067 fold of +GFP Basal and 0.9407 fold of +GFP Basal and 1.002 fold of +GFP Basal
- Relative Nurr1 mRNA expression (fold of +GFP Basal) (Nurr1 mRNA; + αSynA53T): 0.5837 fold of +GFP Basal and 0.5113 fold of +GFP Basal and 0.5463 fold of +GFP Basal
- Relative Nurr1 mRNA expression (fold of +GFP Basal) (Nurr1 mRNA; + αSynWT): 0.7154 fold of +GFP Basal and 0.8045 fold of +GFP Basal and 0.7587 fold of +GFP Basal
- Nurr1 mRNA levels (in words) (Nurr1 mRNA): did not alter
- motor function, cylinder test (in words) (MPTP-induced male mice [1]; CQ 40, 4A7C-301 5, L-DOPA 50 mg/kg/day, i.p., 16 days): significantly rescued
- Number of rearing (MPTP-induced male mice [1]): 34 and 51 and 29 and 33 and 22 and 71 and 46
- olfaction, olfactory discrimination test (in words) (MPTP-induced male mice [2]): significantly restored
- Velocity (MPTP-induced male mice [2]; [6]): 4.45 cm/s and 5.11 cm/s and 5.02 cm/s and 4.95 cm/s and 5.52 cm/s and 4.32 cm/s and 6.05 cm/s and 4.65 cm/s and 4.59 cm/s
- Duration to stay (sec), New bedding (MPTP-induced male mice [2]; Figure 4e, New bedding, MPTP-induced mice, individual animal values): 163.9 s and 142.98 s and 108.88 s and 102.84 s and 124.52 s and 121.25 s and 140.21 s and 123.92 s and 115.28 s
- Duration to stay (sec), Old bedding (MPTP-induced male mice [2]; Figure 4e, Old bedding, MPTP-induced mice, individual animal values): 181.18 s and 132.3 s and 153.69 s and 187.59 s and 195.2 s and 172.27 s and 176.41 s and 155.62 s and 172.61 s
